The target of assay [1] is K-Ras G12C(GMP-PNP) binding to BRAF RBD (Homo sapiens (Human), UniProt P01116+P62937, G12C). The assay is described as follows: Disruption of BRAF RBD interaction with K-Ras (FRET / MOA assay), K-Ras G12C. The conditions noted are these: read-out: KRAS G12C FRET IC50. Type of assay: biochemical. In short, it runs like this:
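TR-FRET readout: after 3 h compound incubation at 25 °C, anti-His Eu and anti-GST allophycocyanin (10 and 50 nM final) added for a further 1.5 h. Dilution series was 10-point, 3-fold, top 30 μM final. Ras–cyclophilin A ternary complex formation blocks the BRAF RBD interaction; IC50 derived from reduced FRET ratio relative to DMSO.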

The test system of a further assay is NCI-H358 (K-Ras G12C). The assay is described as follows: CellTiter-Glo cell viability assay, NCI-H358. The class given is cell-based, human. The following applies: Homo sapiens, NCI-H358, 120 h, 5-day treatment; read-out: H358 Cell Viability assay data (K-Ras G12C, IC50). In short, it runs like this:
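Viability read-out was luminescent (CellTiter-Glo) on day 5 of compound exposure in K-Ras G12C NCI-H358 cells. Values were expressed as percent of mean DMSO signal and fitted with a four-parameter logistic curve.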

Assay [2] concerns Capan-1 cells (K-Ras G12V). Briefly: CellTiter-Glo cell viability, Capan-1. Type of assay: cell-based, human. The following applies: K-Ras G12V, 5-day treatment, read-out: Capan-1 Cell Viability IC50. In short, it runs like this:
(§1)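 Viability read by luminescence on day 5 after direct compound addition to cells, following ~30 min room-temperature equilibration. Values expressed as percent of mean DMSO signal, curves fitted with a four-parameter logistic model.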

The target of a further assay is KRAS G13C (Homo sapiens (Human), UniProt P01116+P62937, G13C). Briefly: Ras-Raf disruption/FRET/MOA assay (BRAF RBD, Cyclophilin A). The class given is biochemical. The following applies: read-out: KRAS G13C FRET IC50. The gist of the method:
(§2)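 His6-K-Ras-GMPPNP (12.5 nM), GST-BRAF RBD (50 nM) and tagless Cyclophilin A (25 μM) were combined in 25 mM HEPES pH 7.3 with 100 mM NaCl, 5 mM MgCl2, 0.1% BSA and 0.002% Tween20, with compound as a 10-point 3-fold series from 30 μM final, then incubated 3 h at 25° C.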

A further assay concerns the target NRAS Q61K (Homo sapiens (Human), UniProt P01111+P62937, Q61K). The description is as above. The class given is biochemical. The gist of the method: (§3)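 TR-FRET read after 1.5 h with 10 nM anti-His Eu-W1024 and 50 nM anti-GST APC, following 3 h at 25 °C of GMPPNP-loaded His6-Ras (12.5 nM), GST-BRAF RBD (50 nM) and Cyclophilin A (25 μM) with compound from 30 μM final, 10 points, 3-fold. IC50 reported; pH 7.3 HEPES, 100 mM NaCl.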

Another assay concerns the target KRAS WT (Homo sapiens (Human), UniProt P01116+P62937). Described as above. Type of assay: biochemical. The conditions noted are these: read-out: KRAS WT FRET data IC50. In short, it runs like this: as §2
A further assay has as its target NRAS G12C (Homo sapiens (Human), UniProt P01111+P62937, G12C). Described as above. The conditions noted are these: read-out: NRAS G12C FRET data IC50. Type of assay: biochemical. In short, it runs like this:
as §3

The target of another assay is KRAS G12V (Homo sapiens (Human), UniProt P01116+P62937, G12V). The assay is described as above. The following applies: read-out: KRAS G12V FRET IC50. Type of assay: biochemical. In short, it runs like this: as §2
KRAS G12V, sequence (P01116 other isoform, or with tags, fused parts or gaps G12V): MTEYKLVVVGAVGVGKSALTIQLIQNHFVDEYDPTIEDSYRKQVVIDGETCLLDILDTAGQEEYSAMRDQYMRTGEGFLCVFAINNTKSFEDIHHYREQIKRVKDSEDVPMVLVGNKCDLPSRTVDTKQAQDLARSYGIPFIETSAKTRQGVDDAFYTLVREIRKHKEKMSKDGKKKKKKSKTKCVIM
KRAS G12V, sequence (P62937 whole entry): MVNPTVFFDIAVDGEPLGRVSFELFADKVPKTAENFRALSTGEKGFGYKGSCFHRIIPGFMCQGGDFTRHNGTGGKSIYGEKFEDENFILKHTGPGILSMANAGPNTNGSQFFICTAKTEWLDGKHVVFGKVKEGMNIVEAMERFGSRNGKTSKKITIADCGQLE
The next assay addresses KRAS G12D (Homo sapiens (Human), UniProt P01116+P62937, G12D). The description is as above. Type of assay: biochemical. The conditions noted are these: read-out: KRAS G12D FRET IC50. The gist of the method: as §2
For a further assay, the target named is KRAS G13D (Homo sapiens (Human), UniProt P01116+P62937, G13D). The description is as above. Type of assay: biochemical. The following applies: read-out: KRAS G13D FRET data IC50. The gist of the method: as §2
KRAS G13D, sequence (P01116 other isoform, or with tags, fused parts or gaps G13D): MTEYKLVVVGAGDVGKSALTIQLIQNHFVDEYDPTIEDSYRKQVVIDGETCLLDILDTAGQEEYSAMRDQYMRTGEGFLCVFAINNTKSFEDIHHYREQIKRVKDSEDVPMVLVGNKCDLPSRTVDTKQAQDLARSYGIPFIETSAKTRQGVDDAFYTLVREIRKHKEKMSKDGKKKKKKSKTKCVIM
KRAS G13D, sequence (P62937 whole entry): as the sequence (P62937 whole entry) above
For the next assay, the target named is KRAS G12C (Homo sapiens (Human), UniProt P01116+P62937, G12C). The description is as above. Type of assay: biochemical. The conditions noted are these: read-out: KRAS G12C FRET IC50. The gist of the method:
as §2

The next assay deals with KRAS G12S (Homo sapiens (Human), UniProt P01116+P62937, G12S). The description is as above. Type of assay: biochemical. The conditions noted are these: read-out: KRAS G12S FRET IC50. In short, it runs like this: as §2
KRAS G12S, sequence (P01116 other isoform, or with tags, fused parts or gaps G12S): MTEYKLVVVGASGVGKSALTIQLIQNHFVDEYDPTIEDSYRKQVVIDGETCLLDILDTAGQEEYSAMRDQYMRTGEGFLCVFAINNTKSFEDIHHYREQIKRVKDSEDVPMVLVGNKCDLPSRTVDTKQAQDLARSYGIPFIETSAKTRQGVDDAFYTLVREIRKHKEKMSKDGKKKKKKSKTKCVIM
KRAS G12S, sequence (P62937 whole entry): as the sequence (P62937 whole entry) above
For the next assay, the target named is NRAS WT (Homo sapiens (Human), UniProt P01111+P62937). The assay is described as above. The class given is biochemical. The gist of the method:
as §3

The subject of assay [3] is NCI-H358 cells (K-Ras G12C). Briefly: CellTiter-Glo cell viability, NCI-H358. The class given is cell-based, human. The following applies: K-Ras G12C, 5-day treatment, read-out: H358 Cell Viability IC50. The gist of the method: as §1
(In general: ATP-based viability assays read luminescence as a measure of living cells.)

A further assay deals with KRAS Q61H (Homo sapiens (Human), UniProt P01116+P62937, Q61H). The assay is described as follows: Ras-Raf disruption/FRET/MOA assay (BRAF RBD, Cyclophilin A). Type of assay: biochemical. The gist of the method:
as §2

The test system of assay [4] is K-Ras G12C (NCI-H358 cells). Briefly: Potency assay: pERK in NCI-H358 cells. Type of assay: cell-based, human. The following applies: Homo sapiens; NCI-H358 cells, 4 hours; read-out: pERK EC50 (H358 KRAS G12C). In short, it runs like this:
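Cells plated the day before were exposed for 4 h at 37° C, 5% CO2 to a 10-point, 3-fold DMSO dilution series (10 mM top stock), in duplicate. Phospho-ERK was read by AlphaLISA SureFire Ultra or by In-Cell Western with DRAQ5 DNA stain, and IC50 came from a 4-parameter sigmoidal fit.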

Another assay deals with NRAS Q61R (Homo sapiens (Human), UniProt P01111+P62937, Q61R). The assay is described as follows: Ras-Raf disruption/FRET/MOA assay (BRAF RBD, Cyclophilin A). The class given is biochemical. The gist of the method: as §3
NRAS Q61R, sequence (P01111 whole entry Q61R): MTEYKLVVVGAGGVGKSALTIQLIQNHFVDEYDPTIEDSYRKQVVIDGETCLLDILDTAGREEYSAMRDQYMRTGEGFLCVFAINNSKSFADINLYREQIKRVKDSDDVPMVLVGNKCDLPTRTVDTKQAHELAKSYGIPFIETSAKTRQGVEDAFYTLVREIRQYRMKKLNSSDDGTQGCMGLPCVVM
NRAS Q61R, sequence (P62937 whole entry): as the sequence (P62937 whole entry) above

The source of these data is patent US20250195521A1 (Revolution Medicines, Inc., priority 2020, published 2025).

SMILES strings stand for the structures. Read-outs that look alike come from different tables or passages of the source. A value given as a limit tells only on which side of the number the result lay.

KRAS G13C, sequence (P01116 other isoform, or with tags, fused parts or gaps G13C): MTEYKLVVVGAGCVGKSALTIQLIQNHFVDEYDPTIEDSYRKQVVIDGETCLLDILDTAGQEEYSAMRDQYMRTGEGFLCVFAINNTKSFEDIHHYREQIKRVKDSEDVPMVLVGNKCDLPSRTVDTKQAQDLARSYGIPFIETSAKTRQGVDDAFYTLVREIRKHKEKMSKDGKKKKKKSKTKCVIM
KRAS G13C, sequence (P62937 whole entry): as the sequence (P62937 whole entry) above
KRAS WT, sequence (P01116 other isoform, or with tags, fused parts or gaps): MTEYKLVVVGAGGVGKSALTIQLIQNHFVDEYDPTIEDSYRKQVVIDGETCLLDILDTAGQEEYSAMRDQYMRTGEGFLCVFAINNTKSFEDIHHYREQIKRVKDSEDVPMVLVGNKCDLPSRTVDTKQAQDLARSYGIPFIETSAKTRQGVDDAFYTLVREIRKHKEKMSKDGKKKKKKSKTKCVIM
KRAS WT, sequence (P62937 whole entry): as the sequence (P62937 whole entry) above
NRAS Q61K, sequence (P01111 whole entry Q61K): as the sequence (P01111 whole entry Q61R) above, with R61K counted along it
NRAS Q61K, sequence (P62937 whole entry): as the sequence (P62937 whole entry) above
NRAS G12C, sequence (P01111 whole entry G12C): as the sequence (P01111 whole entry Q61R) above, with G12C, R61Q counted along it
NRAS G12C, sequence (P62937 whole entry): as the sequence (P62937 whole entry) above
NRAS WT, sequence (P01111 whole entry): as the sequence (P01111 whole entry Q61R) above, with R61Q counted along it
NRAS WT, sequence (P62937 whole entry): as the sequence (P62937 whole entry) above
KRAS G12C, sequence (P01116-2 other isoform, or with tags, fused parts or gaps G12C): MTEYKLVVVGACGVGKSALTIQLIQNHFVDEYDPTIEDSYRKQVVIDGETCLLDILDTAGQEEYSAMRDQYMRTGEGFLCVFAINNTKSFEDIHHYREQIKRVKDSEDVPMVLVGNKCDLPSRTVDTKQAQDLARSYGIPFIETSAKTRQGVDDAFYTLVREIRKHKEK
KRAS G12C, sequence (P62937 whole entry): as the sequence (P62937 whole entry) above
KRAS G12D, sequence (P01116 other isoform, or with tags, fused parts or gaps G12D): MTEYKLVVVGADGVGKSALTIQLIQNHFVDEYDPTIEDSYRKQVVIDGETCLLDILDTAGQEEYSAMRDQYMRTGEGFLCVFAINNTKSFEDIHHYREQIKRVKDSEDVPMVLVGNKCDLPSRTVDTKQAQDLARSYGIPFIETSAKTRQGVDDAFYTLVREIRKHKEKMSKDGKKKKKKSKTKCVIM
KRAS G12D, sequence (P62937 whole entry): as the sequence (P62937 whole entry) above
KRAS Q61H, sequence (P01116 other isoform, or with tags, fused parts or gaps Q61H): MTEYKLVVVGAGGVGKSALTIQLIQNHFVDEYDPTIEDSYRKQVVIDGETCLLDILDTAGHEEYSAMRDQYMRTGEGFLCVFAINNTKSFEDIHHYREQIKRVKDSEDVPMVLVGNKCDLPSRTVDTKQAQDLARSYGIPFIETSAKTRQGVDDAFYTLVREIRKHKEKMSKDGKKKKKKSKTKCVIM
KRAS Q61H, sequence (P62937 whole entry): as the sequence (P62937 whole entry) above
K-Ras G12C(GMP-PNP) binding to BRAF RBD, sequence (P01116 other isoform, or with tags, fused parts or gaps G12C): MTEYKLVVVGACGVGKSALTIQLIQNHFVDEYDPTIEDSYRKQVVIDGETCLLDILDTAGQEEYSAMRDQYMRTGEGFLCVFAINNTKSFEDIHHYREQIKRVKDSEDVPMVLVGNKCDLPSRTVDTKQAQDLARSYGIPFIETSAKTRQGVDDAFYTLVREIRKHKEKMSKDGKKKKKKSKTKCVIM
K-Ras G12C(GMP-PNP) binding to BRAF RBD, sequence (P62937 whole entry): as the sequence (P62937 whole entry) above

As to `CCn1c(-c2cccnc2[C@H](C)OC)c2c3cc(ccc31)-c1cc(O)cc(c1)C[C@H](NC(=O)[C@H](C(C)C)N(C)C(=O)C1(C(=O)O)CC1)C(=O)N1CCC[C@H](N1)C(=O)OCC(C)(C)C2` [Compound A150], the IC50 (as a rule, the concentration that inhibits the measured activity by half) is 0.01 to 0.1 µM in [1]; below 0.01 µM in the assay with NCI-H358 (K-Ras G12C); above 10 µM in assay [2] (Homo sapiens, CAPAN-1, 120 h); 1 to 10 µM on KRAS G13C; 1 to 10 µM against NRAS Q61K; 1 to 10 µM at KRAS WT. The concentration for half-maximal inhibition (IC50) on NRAS G12C was 1 to 10 µM; on KRAS G12V, above 10 µM; at KRAS G12D it was above 10 µM; at KRAS G13D it was above 10 µM; on KRAS G12C, 1 to 10 µM; at KRAS G12S, above 10 µM. On NRAS WT, this compound came in with an IC50 of 1 to 10 µM.
Turning to `CCn1c(-c2cccnc2[C@H](C)OC)c2c3cc(ccc31)-c1csc(n1)C[C@H](NC(=O)[C@H](C(C)C)N(C)C(=O)N1CC(OC)C1)C(=O)N1CCC[C@H](N1)C(=O)OCC(C)(C)C2` [Compound A354], the 50% inhibitory concentration (IC50) (in [3]; in assay [2]; on KRAS G13C; against NRAS Q61K; against KRAS Q61H; at NRAS G12C) was 0.1 to 1 µM each time. In addition, the IC50 on KRAS G12V lay in the range of 0.1 to 1 µM; on KRAS G12D it was 1 to 10 µM; at KRAS G13D, 1 to 10 µM; at KRAS G12C, 0.1 to 1 µM; on KRAS G12S, 0.1 to 1 µM.
Turning to `CCn1c(-c2cccnc2[C@H](C)OC)c2c3cc(ccc31)-c1csc(n1)C[C@H](NC(=O)N1CCC1)C(=O)N1CCC[C@H](N1)C(=O)OCC(C)(C)C2` [Compound A368], the IC50 in [3] (Homo sapiens, NCI-H358, 120 h) fell in the range of 0.1 to 1 µM; in assay [2] (Homo sapiens, CAPAN-1, 120 h) it was 0.1 to 1 µM; on KRAS G13C, 0.1 to 1 µM; at NRAS Q61K it was 0.1 to 1 µM; on KRAS WT, 0.1 to 1 µM; against KRAS Q61H, 0.1 to 1 µM. Also, the IC50 at NRAS G12C was 0.1 to 1 µM; at KRAS G12V, 0.1 to 1 µM; at KRAS G12D it was 1 to 10 µM; on KRAS G13D, 1 to 10 µM; at KRAS G12C, 0.1 to 1 µM; at KRAS G12S, 0.1 to 1 µM. For the same compound, at NRAS WT, the IC50 fell in the range of 0.1 to 1 µM.
As to `CCn1c(-c2cccnc2[C@H](C)OC)c2c3cc(ccc31)-c1csc(n1)C[C@H](NC(=O)[C@H](C(C)C)N(C)C(=O)[C@H]1[C@@H]3CNC[C@@H]31)C(=O)N1CCC[C@H](N1)C(=O)OCC(C)(C)C2` [Compound A448], the IC50 in assay [2] (Homo sapiens, CAPAN-1, 120 h) was above 10 µM; at KRAS G13C, 1 to 10 µM; at NRAS Q61K, 1 to 10 µM; at KRAS WT, 1 to 10 µM; on NRAS G12C it was 1 to 10 µM; at KRAS G12D, 1 to 10 µM. Further, the IC50 on NRAS Q61R, at KRAS G13D, at KRAS G12C, at KRAS G12S and at NRAS WT was 1 to 10 µM throughout. The concentration giving a half-maximal response (EC50) – broadly, the concentration that produces a half-maximal response – in [4] was below 5 µM.
